Source: patent US10167262B2, “Herbicidal substituted 3-arylpyrazoles” (FMC CORPORATION, priority 2014, dated 2019)

How the values were obtained:
Type in all cases: in vivo
[1] = system: green foxtail (Setaria viridis); assay: Test E pre-/postemergence greenhouse test, plant response rating 0-100; settings: Preemergence, scale 0 to 100
[2] = system: yellow nutsedge (Cyperus esculentus); assay: as above; settings: Preemergence, scale 0 to 100
[3] = system: giant foxtail (Setaria faberii); assay: as above; settings: Preemergence, scale 0 to 100
[4] = system: johnsongrass (Sorghum halepense); assay: as above; settings: Preemergence, scale 0 to 100
[5] = system: goosegrass (Eleusine indica); assay: as above; settings: Preemergence, scale 0 to 100
[6] = system: morningglory (Ipomoea coccinea); assay: as above; settings: Preemergence, scale 0 to 100
[7] = system: surinam grass (Brachiaria decumbens); assay: Test C postemergence greenhouse test, plant response rating 0-100
Method in brief: (§1)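 Plants rated visually 0 (no effect) to 100 (complete control) against untreated controls after 13 to 15 days in the greenhouse, dash indicating no result. Treatment was a postemergence application of formulated chemicals at the 1- to 4-leaf stage (2 to 18 cm), in pots of peat-vermiculite medium.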

[8] = system: cocklebur (common cocklebur, Xanthium strumarium); assay: as above
Method in brief: as §1

[9] = system: woolly cupgrass (Eriochloa villosa); assay: as above
Method in brief: as §1

[10] = system: canarygrass (Phalaris minor); assay: as above
Method in brief: as §1

[11] = system: green foxtail (Setaria viridis); assay: as above
Method in brief: as §1

[12] = system: deadnettle (henbit deadnettle, Lamium amplexicaule); assay: as above
Method in brief: as §1

[13] = system: windgrass (Apera spica-venti); assay: as above
Method in brief: as §1

[14] = system: bermudagrass (Cynodon dactylon); assay: as above
Method in brief: as §1

[15] = system: winter barley (Hordeum vulgare); assay: as above
Method in brief: as §1

[16] = system: downy bromegrass (Bromus tectorum); assay: as above
Method in brief: as §1

[17] = system: goosegrass (Eleusine indica); assay: as above
Method in brief: as §1

O=C(c1ccccc1)c1cn(S(=O)(=O)CCl)nc1-c1cc(Cl)cc(Cl)c1 [Compound 1]
Foxtail, Green plant response rating ([1]; 31 g ai/ha): 0 | Foxtail, Green plant response rating ([1]; 62 g ai/ha): 0 | Foxtail, Green plant response rating ([1]; 125 g ai/ha): 0 | Foxtail, Green plant response rating ([1]; 250 g ai/ha): 0 | Foxtail, Green plant response rating ([1]; 500 g ai/ha): 15 | Nutsedge, Yellow plant response rating ([2]; 31 g ai/ha): 0 | Nutsedge, Yellow plant response rating ([2]; 62 g ai/ha): 0 | Nutsedge, Yellow plant response rating ([2]; 125 g ai/ha): 0 | Nutsedge, Yellow plant response rating ([2]; 250 g ai/ha): 0 | Foxtail, Giant plant response rating ([3]; 31 g ai/ha): 0 | Foxtail, Giant plant response rating ([3]; 62 g ai/ha): 0 | Foxtail, Giant plant response rating ([3]; 125 g ai/ha): 0 | Foxtail, Giant plant response rating ([3]; 250 g ai/ha): 0 | Foxtail, Giant plant response rating ([3]; 500 g ai/ha): 0 | Johnsongrass plant response rating ([4]; 31 g ai/ha): 0 | Johnsongrass plant response rating ([4]; 62 g ai/ha): 0 | Johnsongrass plant response rating ([4]; 125 g ai/ha): 0 | Johnsongrass plant response rating ([4]; 250 g ai/ha): 20 | Johnsongrass plant response rating ([4]; 500 g ai/ha): 20 | Goosegrass plant response rating ([5]; 31 g ai/ha): 0 | Goosegrass plant response rating ([5]; 62 g ai/ha): 0 | Goosegrass plant response rating ([5]; 125 g ai/ha): 0 | Goosegrass plant response rating ([5]; 250 g ai/ha): 0 | Goosegrass plant response rating ([5]; 500 g ai/ha): 0 | Morningglory plant response rating ([6]; 31 g ai/ha): 0 | Morningglory plant response rating ([6]; 62 g ai/ha): 0 | Morningglory plant response rating ([6]; 125 g ai/ha): 0 | Morningglory plant response rating ([6]; 250 g ai/ha): 0 | Morningglory plant response rating ([6]; 500 g ai/ha): 0

O=C(c1ccccc1)c1cn(S(=O)(=O)C(F)(F)F)nc1-c1cc(Cl)cc(Cl)c1 [Compound 2]
Foxtail, Green plant response rating ([1]; 31 g ai/ha): 0 | Foxtail, Green plant response rating ([1]; 62 g ai/ha): 0 | Foxtail, Green plant response rating ([1]; 125 g ai/ha): 0 | Foxtail, Green plant response rating ([1]; 250 g ai/ha): 0 | Foxtail, Green plant response rating ([1]; 500 g ai/ha): 0 | Nutsedge, Yellow plant response rating ([2]; 31 g ai/ha): 0 | Nutsedge, Yellow plant response rating ([2]; 125 g ai/ha): 50 | Nutsedge, Yellow plant response rating ([2]; 250 g ai/ha): 40 | Nutsedge, Yellow plant response rating ([2]; 500 g ai/ha): 35 | Foxtail, Giant plant response rating ([3]; 31 g ai/ha): 0 | Foxtail, Giant plant response rating ([3]; 62 g ai/ha): 0 | Foxtail, Giant plant response rating ([3]; 125 g ai/ha): 0 | Foxtail, Giant plant response rating ([3]; 250 g ai/ha): 0 | Foxtail, Giant plant response rating ([3]; 500 g ai/ha): 0 | Johnsongrass plant response rating ([4]; 31 g ai/ha): 0 | Johnsongrass plant response rating ([4]; 62 g ai/ha): 0 | Johnsongrass plant response rating ([4]; 125 g ai/ha): 0 | Johnsongrass plant response rating ([4]; 250 g ai/ha): 0 | Johnsongrass plant response rating ([4]; 500 g ai/ha): 0 | Goosegrass plant response rating ([5]; 31 g ai/ha): 0 | Goosegrass plant response rating ([5]; 62 g ai/ha): 0 | Goosegrass plant response rating ([5]; 125 g ai/ha): 0 | Goosegrass plant response rating ([5]; 250 g ai/ha): 0 | Goosegrass plant response rating ([5]; 500 g ai/ha): 0 | Morningglory plant response rating ([6]; 31 g ai/ha): 0 | Morningglory plant response rating ([6]; 62 g ai/ha): 0 | Morningglory plant response rating ([6]; 125 g ai/ha): 0 | Morningglory plant response rating ([6]; 250 g ai/ha): 0 | Morningglory plant response rating ([6]; 500 g ai/ha): 0

O=C(c1ccccc1)c1cn(S(=O)(=O)CC(F)(F)F)nc1-c1cc(Cl)cc(Cl)c1 [Compound 3]
Foxtail, Green plant response rating ([1]; 31 g ai/ha): 0 | Foxtail, Green plant response rating ([1]; 62 g ai/ha): 0 | Foxtail, Green plant response rating ([1]; 125 g ai/ha): 0 | Foxtail, Green plant response rating ([1]; 250 g ai/ha): 0 | Foxtail, Green plant response rating ([1]; 500 g ai/ha): 0 | Nutsedge, Yellow plant response rating ([2]; 62 g ai/ha): 50 | Nutsedge, Yellow plant response rating ([2]; 125 g ai/ha): 35 | Nutsedge, Yellow plant response rating ([2]; 500 g ai/ha): 75 | Foxtail, Giant plant response rating ([3]; 31 g ai/ha): 0 | Foxtail, Giant plant response rating ([3]; 62 g ai/ha): 0 | Foxtail, Giant plant response rating ([3]; 125 g ai/ha): 0 | Foxtail, Giant plant response rating ([3]; 250 g ai/ha): 15 | Foxtail, Giant plant response rating ([3]; 500 g ai/ha): 35 | Johnsongrass plant response rating ([4]; 31 g ai/ha): 0 | Johnsongrass plant response rating ([4]; 62 g ai/ha): 0 | Johnsongrass plant response rating ([4]; 125 g ai/ha): 0 | Johnsongrass plant response rating ([4]; 250 g ai/ha): 35 | Johnsongrass plant response rating ([4]; 500 g ai/ha): 35 | Goosegrass plant response rating ([5]; 31 g ai/ha): 0 | Goosegrass plant response rating ([5]; 62 g ai/ha): 0 | Goosegrass plant response rating ([5]; 125 g ai/ha): 0 | Goosegrass plant response rating ([5]; 250 g ai/ha): 35 | Goosegrass plant response rating ([5]; 500 g ai/ha): 35 | Morningglory plant response rating ([6]; 31 g ai/ha): 0 | Morningglory plant response rating ([6]; 62 g ai/ha): 0 | Morningglory plant response rating ([6]; 125 g ai/ha): 0 | Morningglory plant response rating ([6]; 250 g ai/ha): 0 | Morningglory plant response rating ([6]; 500 g ai/ha): 0

Cn1cc(C(=O)c2ccccc2)c(-c2cc(Cl)cc(Cl)c2)n1 [Compound 54, [3-(3,5-dichlorophenyl)-1-methyl-1H-pyrazol-4-yl]phenylmethanone]
Plant response rating (0 to 100), Surinam Grass ([7]; 62 g ai/ha): 0 | Plant response rating (0 to 100), Surinam Grass ([7]; 125 g ai/ha): 0 | Plant response rating, Surinam Grass ([7]; 250 g ai/ha, scale 0 to 100): 0 | Plant response rating (0 to 100), Cocklebur ([8]; 31 g ai/ha): 0 | Plant response rating (0 to 100), Cocklebur ([8]; 62 g ai/ha): 0 | Plant response rating (0 to 100), Cocklebur ([8]; 125 g ai/ha): 0 | Plant response rating, Cocklebur ([8]; 250 g ai/ha, scale 0 to 100): 0 | Plant response rating (0 to 100), Cupgrass, Woolly ([9]; 31 g ai/ha): 0 | Plant response rating (0 to 100), Cupgrass, Woolly ([9]; 62 g ai/ha): 0 | Plant response rating (0 to 100), Cupgrass, Woolly ([9]; 125 g ai/ha): 0 | Plant response rating, Cupgrass, Woolly ([9]; 250 g ai/ha, scale 0 to 100): 0 | Plant response rating (0 to 100), Canarygrass ([10]; 31 g ai/ha): 0 | Plant response rating (0 to 100), Canarygrass ([10]; 62 g ai/ha): 0 | Plant response rating (0 to 100), Canarygrass ([10]; 125 g ai/ha): 0 | Plant response rating, Canarygrass ([10]; 250 g ai/ha, scale 0 to 100): 0 | Plant response rating (0 to 100), Foxtail, Green ([11]; 31 g ai/ha): 0 | Plant response rating (0 to 100), Foxtail, Green ([11]; 62 g ai/ha): 0 | Plant response rating (0 to 100), Foxtail, Green ([11]; 125 g ai/ha): 0 | Plant response rating, Foxtail, Green ([11]; 250 g ai/ha, scale 0 to 100): 0 | Plant response rating (0 to 100), Deadnettle ([12]; 31 g ai/ha): 0 | Plant response rating (0 to 100), Deadnettle ([12]; 62 g ai/ha): 0 | Plant response rating (0 to 100), Deadnettle ([12]; 125 g ai/ha): 0 | Plant response rating, Deadnettle ([12]; 250 g ai/ha, scale 0 to 100): 5 | Plant response rating (0 to 100), Windgrass ([13]; 62 g ai/ha): 0 | Plant response rating (0 to 100), Windgrass ([13]; 125 g ai/ha): 0 | Plant response rating, Windgrass ([13]; 250 g ai/ha, scale 0 to 100): 0 | Plant response rating (0 to 100), Bermudagrass ([14]; 31 g ai/ha): 0 | Plant response rating (0 to 100), Bermudagrass ([14]; 62 g ai/ha): 0 | Plant response rating (0 to 100), Bermudagrass ([14]; 125 g ai/ha): 0 | Plant response rating, Bermudagrass ([14]; 250 g ai/ha, scale 0 to 100): 0 | Plant response rating (0 to 100), Barley ([15]; 31 g ai/ha): 0 | Plant response rating (0 to 100), Barley ([15]; 62 g ai/ha): 0 | Plant response rating (0 to 100), Barley ([15]; 125 g ai/ha): 0 | Plant response rating, Barley ([15]; 250 g ai/ha, scale 0 to 100): 0 | Plant response rating (0 to 100), Bromegrass, Downy ([16]; 31 g ai/ha): 0 | Plant response rating (0 to 100), Bromegrass, Downy ([16]; 62 g ai/ha): 0 | Plant response rating (0 to 100), Bromegrass, Downy ([16]; 125 g ai/ha): 0 | Plant response rating, Bromegrass, Downy ([16]; 250 g ai/ha, scale 0 to 100): 0 | Plant response rating (0 to 100), Goosegrass ([17]; 31 g ai/ha): 0 | Plant response rating (0 to 100), Goosegrass ([17]; 62 g ai/ha): 0 | Plant response rating (0 to 100), Goosegrass ([17]; 125 g ai/ha): 0 | Plant response rating, Goosegrass ([17]; 250 g ai/ha, scale 0 to 100): 0 | Morningglory plant response rating ([6]; 125 g ai/ha): 7 | Morningglory plant response rating ([6]; 250 g ai/ha): 12
